In PMC10609143, “Inhibitory Mechanisms of Lekethromycin in Dog Liver Cytochrome P450 Enzymes Based on UPLC-MS/MS Cocktail Method” (Molecules, 2023):

Columns and labels:
Assay in all cases: Irreversible inhibition (IC50 shift) in dog liver microsomes
Type in all cases: in vitro ADME
CYP2A6 = tested on: CYP2A6
Protocol: (§1) To characterize the reversible or irreversible mechanism of CYP450 inhibition via LKMS, the shifted IC50 values were used to determine whether the inhibition of LKMS on CYP450 was time-dependent. […] The above mixture was then incubated for another 30 min in the presence of NADPH. The concentrations of LKMS were designated as 0.2, 2, 4, 6, 8, 10, 20, 40, and 80 μM, and the concentration of each probe substrate was based on each Km value. The concentrations of the probe substrates of CYP2A6, CYP2B6, and CYP2D6 were at single concentrations approximating their Km values.

CYP2B6 = biological target: T1, CYP2B6 (Canis lupus familiaris, UniProt P24460)
T1 construct: from tissue; host or cells: dog liver microsomes (DLM)
T1 sequence (P24460 1-494): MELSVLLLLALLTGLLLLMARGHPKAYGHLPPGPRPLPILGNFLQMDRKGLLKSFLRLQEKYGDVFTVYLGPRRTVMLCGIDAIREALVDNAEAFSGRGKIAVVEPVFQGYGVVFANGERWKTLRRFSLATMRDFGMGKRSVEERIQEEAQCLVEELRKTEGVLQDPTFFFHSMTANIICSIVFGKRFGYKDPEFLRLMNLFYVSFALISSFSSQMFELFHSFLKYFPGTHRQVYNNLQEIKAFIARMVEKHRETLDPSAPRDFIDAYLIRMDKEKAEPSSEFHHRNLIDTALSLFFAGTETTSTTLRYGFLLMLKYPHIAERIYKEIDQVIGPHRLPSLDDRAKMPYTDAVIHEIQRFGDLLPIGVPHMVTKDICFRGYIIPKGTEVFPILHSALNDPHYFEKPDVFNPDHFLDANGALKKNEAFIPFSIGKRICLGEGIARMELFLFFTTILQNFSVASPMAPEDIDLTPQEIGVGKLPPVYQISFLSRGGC
Protocol: as §1

CYP2D6 = biological target: T2, CYP2D6 (Canis lupus familiaris, UniProt Q29473)
T2 construct: from tissue; host or cells: dog liver microsomes (DLM)
T2 sequence (Q29473 1-500): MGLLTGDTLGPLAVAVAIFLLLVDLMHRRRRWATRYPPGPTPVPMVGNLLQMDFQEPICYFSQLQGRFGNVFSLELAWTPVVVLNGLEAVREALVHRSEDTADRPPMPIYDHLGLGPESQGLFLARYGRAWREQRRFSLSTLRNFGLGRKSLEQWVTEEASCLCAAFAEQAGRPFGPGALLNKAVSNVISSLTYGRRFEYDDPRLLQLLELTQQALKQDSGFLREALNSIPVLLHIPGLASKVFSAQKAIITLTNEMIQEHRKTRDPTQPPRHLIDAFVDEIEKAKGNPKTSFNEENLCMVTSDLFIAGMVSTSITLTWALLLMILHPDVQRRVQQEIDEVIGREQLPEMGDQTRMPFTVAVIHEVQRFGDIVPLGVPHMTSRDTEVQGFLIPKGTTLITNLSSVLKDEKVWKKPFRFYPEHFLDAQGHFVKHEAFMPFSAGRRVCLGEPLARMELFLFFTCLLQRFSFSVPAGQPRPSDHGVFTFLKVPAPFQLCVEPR
Protocol: as §1

For Lekethromycin [LKMS], the “IC50 fold-shift, Shift Ratio (−NADPH/+NADPH)” value (from here on “IC50 fold-shift, Shift Ratio”) (CYP2A6; CYP2A6, 30 min preincubation at 37 °C with and without NADPH) was 1.29, the Time-dependent inhibition (CYP2A6; CYP2A6, judged from IC50 fold-shift <1.5) was “might not be a time-dependent inhibitor” and the “IC50 fold-shift, Shift Ratio” value (CYP2B6; CYP2B6, 30 min preincubation at 37 °C with and without NADPH) was 0.88. For the same substance, the Time-dependent inhibition (CYP2B6; CYP2B6, judged from IC50 fold-shift <1.5) was “might not be a time-dependent inhibitor”, the “IC50 fold-shift, Shift Ratio” value (CYP2D6; CYP2D6, 30 min preincubation at 37 °C with and without NADPH) was 1.10 and the Time-dependent inhibition (CYP2D6; CYP2D6, judged from IC50 fold-shift <1.5) was “might not be a time-dependent inhibitor”.
